Test results published in patent US20240374581A1, “SALT TYPES OF TRICYCLIC TETRAHYDRO ISOQUINOLINE DERIVATIVE” (JIANGSU HENGRUI PHARMACEUTICALS CO., LTD., priority 2021, published 2024).

Assays:
[1] = test system: ERα Y537S mutant-expressing MCF7 cells; assay: Inhibition of proliferation of ERα mutant-expressing MCF7 cells; assay type: cell-based; conditions: Homo sapiens, 144 h, read-out: IC50, inhibitory effect on the proliferation of ERα mutant-expressing MCF7 cells
Excerpt: The mutant estrogen receptor α (ERα) Y537S of human ERα protein was obtained by site-directed mutagenesis in a two-primer PCR manner using the cDNA of wild-type ESR1 gene (Accession No. NM000125) as a template. The sequences of the primers used in the mutation are as follows (the underlined nucleotides are the sites of mutation): Y537S: F-AAGAACGTGGTGCCCCTCTCTGACCTGCTGCTGGAGATG (SEQ ID NO: 1); R-CATCTCCAGCAGCAGGTCAGAGAGGGGCACCACGTTCTT (SEQ ID NO: 2). The cDNA of the mutant ESR1 was cloned into the lentiviral vector of interest pCDH-CMV-MCS-EF1-Puro. The lentiviral plasmid bearing the mutant ESR1 gene sequence and the lentiviral packaging plasmid were then transfected into HEK-293T cells (ATCC, CRL-3216) by using Lipofectamine 3000 Transfection Reagent (ThermoFisher Scientific, Cat #L3000075). […]
The ERα mutant-expressing MCF7 cells were cultured in an MEM (GE Healthcare, SH30024.01) complete medium containing 10% fetal bovine serum. […] The plate was let stand at room temperature for 10 min, and the luminescence signal value was read using a multilabel microplate reader (PerkinElmer, VICTOR 3). The IC50 value for the inhibitory activity of the compound was calculated according to the compound concentration and the luminescence signal value and is shown in Table 3.

[2] = Hygroscopicity study (DVS); assay type: physicochemical; conditions: 25° C.
Experimental: DVS refers to dynamic vapor sorption: The measurement was conducted on SMS DVS Advantage; at 25° C., the humidity was changed as follows: 50%-95%-0%-95%-50%, in steps of 10% (5% for the last step) (specific humidity ranges are shown in corresponding patterns, and those listed here were used in most cases); the criterion was dm/dt≤0.002%.
The measurement was conducted with a Surface Measurement Systems intrinsic at 25° C., starting from 50% humidity in humidity range of 0%-95%, in steps of 10%; the criterion was dM/dT≤0.002% and TMAX of 360 min in two cycles.

ER (estrogen receptor) = ER (estrogen receptor) (Homo sapiens (Human), UniProt P03372); assay: Inhibition of binding of E to ER (MCF-7/ERE-luciferase reporter); assay type: cell-based; conditions: MCF-7/ERE-luciferase cells, 0.1 nM estradiol, 24 h; read-out: IC50, inhibitory effect on the binding of E to ER
Experimental: The compound of the present disclosure can inhibit the binding of E (estrogen) to ER (estrogen receptor), thereby blocking the binding of the complex of E and ER to ERE (estrogen response element), and consequently the expression of downstream luciferase proteins. The inhibitory effect of the compound of the present disclosure on the binding of E to ER was tested by using the following method.
An ERE was cloned upstream of the luciferase gene, and MCF-7/ERE-luciferase monoclonal cells were selected by transfection of MCF-7 (TCHu74, National Collection of Authenticated Cell Cultures). The MCF-7/ERE-luciferase cells were seeded into a 96-well plate with an MEM (hyclone, SH30024.01B) medium containing 10% charcoal stripped FBS (Moregate, FBSF), 1% sodium pyruvate (sigma, S8636), 1% non-essential amino acids (sigma, M7145) and 500 μg/mL G418 at a density of 30,000 cells/well and cultured at 37° C. with 5% CO2. […] The plate was let stand at room temperature in the dark for 10-15 min, and the chemiluminescence signal value was determined.
The inhibitory effect of the compound of the present disclosure on the binding of E to ER was determined through the above experiment. The chemiluminescence signal value was analyzed against the compound concentration (in log form) using Graphpad Prism, and the IC50 value of the compound was obtained.

Sequence of ER (estrogen receptor) (P03372 whole entry): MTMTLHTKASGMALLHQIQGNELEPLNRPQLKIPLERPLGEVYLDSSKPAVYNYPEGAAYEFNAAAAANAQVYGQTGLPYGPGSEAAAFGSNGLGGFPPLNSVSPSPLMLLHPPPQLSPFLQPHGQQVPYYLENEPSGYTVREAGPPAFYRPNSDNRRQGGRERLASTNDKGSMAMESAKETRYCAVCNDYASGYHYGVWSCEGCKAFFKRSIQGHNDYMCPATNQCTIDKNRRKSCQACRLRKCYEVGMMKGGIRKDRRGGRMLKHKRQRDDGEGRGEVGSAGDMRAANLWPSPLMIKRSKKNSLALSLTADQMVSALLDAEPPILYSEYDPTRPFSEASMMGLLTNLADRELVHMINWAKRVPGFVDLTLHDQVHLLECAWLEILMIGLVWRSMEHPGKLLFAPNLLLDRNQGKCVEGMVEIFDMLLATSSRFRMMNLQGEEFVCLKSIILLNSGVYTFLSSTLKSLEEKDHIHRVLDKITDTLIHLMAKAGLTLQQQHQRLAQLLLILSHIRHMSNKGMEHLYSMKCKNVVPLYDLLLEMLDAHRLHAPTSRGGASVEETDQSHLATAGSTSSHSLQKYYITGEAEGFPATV

[2H]C1([2H])Oc2cc3c(cc2O1)[C@@H](c1ccc(NC2CN(CCCF)C2)cn1)N(CC(F)(F)CO)[C@H](C)C3 [Compound 1, 2,2-Difluoro-3-((5S,7R)-5-(5-((1-(3-fluoropropyl)azetidin-3-yl)amino)pyridin-2-yl)-7-methyl-7,8-dihydro-[1,3]dioxolo[4,5-g]isoquinolin-6(5H)-yl-2,2-d2)propan-1-ol]
IC50 [1]: 1.36 nM
Hygroscopicity grade ([2]; 0% RH-80.0% RH): hygroscopic
Crystal form after DVS [2]: Did not change
Hygroscopicity 0% RH-80.0% RH ([2]; DVS): 4.6%
Hygroscopicity 0.0% RH-95.0% RH ([2]; DVS): 6.7%
IC50 (ER (estrogen receptor)): 0.69 nM
